We go through 35 molecules from US10774064B2 (Cadent Therapeutics, Inc., priority 2016, dated 2020).

For the test, the target named is T1, small-conductance Ca2+-activated K+ channels (SK channels, subtype 2) (Homo sapiens, UniProt Q9H2S1).
T1 construct: expressed in transfected cells; host or cells: HEK293
In words: whole-cell patch-clamp of ionic current through SK2 channels in HEK293 cells (SC100). In kind it is cell-based. The conditions noted are these: concentration that increases the basal current by 100%; HEK293 cells expressing SK2 channels. The gist of the method: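 SC100, the concentration doubling basal current (a 100% increase), was taken from SK2 currents recorded by whole-cell patch-clamp in SK2-expressing HEK293 cells.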
In general terms: The patch-clamp technique gives a direct electrical read-out from membranes.

With `Cc1cc(C)n(-c2nc(NC3CCC(F)(F)CC3)cc(N3CC(C)OC(C)C3)n2)n1` (centres unmarked) [Compound 190, N-(4,4-difluorocyclohexyl)-2-(3,5-dimethyl-1H-pyrazol-1-yl)-6-(2,6-dimethylmorpholino)pyrimidin-4-amine], the SC100 result is on record as “++ (++ means 200 nM-1000 nM)”.
`Cc1cc(C)n(-c2nc(NC3CCC(F)(F)CC3)cc(OCc3cnn(C)n3)n2)n1` [Compound 191, N-(4,4-difluorocyclohexyl)-2-(3,5-dimethyl-1H-pyrazol-1-yl)-6-((2-methyl-2H-1,2,3-triazol-4-yl)methoxy)pyrimidin-4-amine]: the SC100 entry is reported as “++ (++ means 200 nM-1000 nM)”.
As for `Cc1cc(C)n(-c2nc(CO)cc(NC3CCC(F)(F)C3)n2)n1` (centres unmarked) [Compound 192, (6-((3,3-difluorocyclopentyl)amino)-2-(3,5-dimethyl-1H-pyrazol-1-yl)pyrimidin-4-yl)methanol], the entry is “++ (++ means 200 nM-1000 nM)”; as for `COCc1cc(NC2CCC(F)(F)CC2)nc(-n2nc(C)cc2C)n1` [Compound 193], “+ (+ means >1 uM)”.
Take `COCC1CN(c2cc(NC3CCC(F)(F)CC3)nc(-n3nc(C)cc3C)n2)CCO1` (centres unmarked) [Compound 194, N-(4,4-difluorocyclohexyl)-2-(3,5-dimethyl-1H-pyrazol-1-yl)-6-(2-(methoxymethyl)morpholino)pyrimidin-4-amine]: the SC100 result is on record as “++ (++ means 200 nM-1000 nM)”.
For `Cc1cc(C)n(-c2cc(CN)cc(NC3CCC(F)(F)CC3)n2)n1` [Compound 195, 4-(aminomethyl)-N-(4,4-difluorocyclohexyl)-6-(3,5-dimethyl-1H-pyrazol-1-yl)pyridin-2-amine], the SC100 entry is listed as “++ (++ means 200 nM-1000 nM)”.
Take `Cc1cc(NC2CCC(F)(F)CC2)nc(-n2cc(F)cn2)n1` [Compound 196, N-(4,4-difluorocyclohexyl)-2-(4-fluoro-1H-pyrazol-1-yl)-6-methylpyrimidin-4-amine]: the SC100 entry is on record as “+ (+ means >1 uM)”.
As for `CCc1ccn(-c2nc(C)cc(NC3CCC(F)(F)CC3)n2)n1` [Compound 197, N-(4,4-difluorocyclohexyl)-2-(3-ethyl-1H-pyrazol-1-yl)-6-methylpyrimidin-4-amine], the SC100 result was “++ (++ means 200 nM-1000 nM)”.
For `Cc1cc(C)n(-c2nc(NC3CCC(F)(F)CC3)cc([C@H](C)O)n2)n1` [Compound 199, (+)1-(6-((4,4-difluorocyclohexyl)amino)-2-(3,5-dimethyl-1H-pyrazol-1-yl)pyrimidin-4-yl)ethan-1-ol], the SC100 result is given as “++ (++ means 200 nM-1000 nM)”.
On to `Cc1cc(NC2CCC(F)(F)CC2)nc(-n2ccc(C(F)(F)F)n2)n1` [Compound 200, N-(4,4-difluorocyclohexyl)-6-methyl-2-(3-(trifluoromethyl)-1H-pyrazol-1-yl)pyrimidin-4-amine], for which the SC100 result is “++ (++ means 200 nM-1000 nM)”.
As to `Cc1cc(NC2CCC(F)(F)CC2)nc(-n2nc(C)c(F)c2C)n1` [Compound 201, N-(4,4-difluorocyclohexyl)-2-(4-fluoro-3,5-dimethyl-1H-pyrazol-1-yl)-6-methylpyrimidin-4-amine], the SC100 result was “++ (++ means 200 nM-1000 nM)”.
The result for `Cc1cc(NC2CCC(F)(F)CC2)nc(-n2ccc(C(C)O)n2)n1` (centres unmarked) [Compound 202, 1-(1-(4-((4,4-difluorocyclohexyl)amino)-6-methylpyrimidin-2-yl)-1H-pyrazol-3-yl)ethan-1-ol] reads “+ (+ means >1 uM)”; that for `Cc1cc(NC2CCC(F)(F)CC2)nc(-n2ccc(C3CC3)n2)n1` [Compound 203, 2-(3-cyclopropyl-1H-pyrazol-1-yl)-N-(4,4-difluorocyclohexyl)-6-methylpyrimidin-4-amine], “++ (++ means 200 nM-1000 nM)”; that for `Cc1cc(NC2CCC(F)(F)CC2)nc(-n2ccc(CO)n2)n1` [Compound 204, (1-(4-((4,4-difluorocyclohexyl)amino)-6-methylpyrimidin-2-yl)-1H-pyrazol-3-yl)methanol], “+ (+ means >1 uM)”.
On to `Cc1cc(C)n(-c2cc(C(C)(C)O)cc(NC3CCC(F)(F)CC3)n2)n1` [Compound 206, 2-(2-((4,4-difluorocyclohexyl)amino)-6-(3,5-dimethyl-1H-pyrazol-1-yl)pyridin-4-yl)propan-2-ol], for which the SC100 entry is listed as “+ (+ means >1 uM)”.
`Cc1cc(C)n(-c2cc(C(C)O)cc(NC3CCC(F)(F)CC3)n2)n1` (centres unmarked) [Compound 207, 1-(2-((4,4-difluorocyclohexyl)amino)-6-(3,5-dimethyl-1H-pyrazol-1-yl)pyridin-4-yl)ethan-1-ol]: the SC100 result was “+ (+ means >1 uM)”.
The result for `Cc1cc(NC2CCC(F)(F)CC2)nc(-n2ccc(CC#N)n2)n1` [Compound 208, 2-(1-(4-((4,4-difluorocyclohexyl)amino)-6-methylpyrimidin-2-yl)-1H-pyrazol-3-yl)acetonitrile] reads “++ (++ means 200 nM-1000 nM)”.
The result for `Cc1cc(C)n(-c2nc(NC3CCC(F)(F)CC3)cc(OC(F)F)n2)n1` [Compound 209, N-(4,4-difluorocyclohexyl)-6-(difluoromethoxy)-2-(3,5-dimethyl-1H-pyrazol-1-yl)pyrimidin-4-amine] reads “+ (+ means >1 uM)”; that for `Cc1ccn(-c2nc(NC3CCC(F)(F)CC3)cc(OC3CN(C(=O)C(C)C)C3)n2)n1` [Compound 210, 1-(3-((6-((4,4-difluorocyclohexyl)amino)-2-(3-methyl-1H-pyrazol-1-yl)pyrimidin-4-yl)oxy)azetidin-1-yl)-2-methylpropan-1-one], “++ (++ means 200 nM-1000 nM)”.
On to `Cc1ccn(-c2nc(NC3CCC(F)(F)CC3)cc(OC3CN(C(=O)C(C)(C)C)C3)n2)n1` [Compound 211, 1-(3-((6-((4,4-difluorocyclohexyl)amino)-2-(3-methyl-1H-pyrazol-1-yl)pyrimidin-4-yl)oxy)azetidin-1-yl)-2,2-dimethylpropan-1-one], for which the SC100 result was “+++ (+++ means <200 nM)”.
For `Cc1cc(NC2CCC(F)(F)CC2)nc(-n2ccc(C#N)n2)n1` [Compound 212, 1-(4-((4,4-difluorocyclohexyl)amino)-6-methylpyrimidin-2-yl)-1H-pyrazole-3-carbonitrile], the SC100 entry was “+ (+ means >1 uM)”.
As for `Cc1cc(C)n(-c2nc(NC3CCC(F)(F)C3)cc(C(C)(C)O)n2)n1` (centres unmarked) [Compound 214, 2-(6-((3,3-difluorocyclopentyl)amino)-2-(3,5-dimethyl-1H-pyrazol-1-yl)pyrimidin-4-yl)propan-2-ol], the entry is “+ (+ means >1 uM)”.
As for `Cc1cc(NC2CCC(F)(F)CC2)nc(-n2ccc(C(C)(C)O)n2)n1` [Compound 215, 2-(1-(4-((4,4-difluorocyclohexyl)amino)-6-methylpyrimidin-2-yl)-1H-pyrazol-3-yl)propan-2-ol], the entry is “+ (+ means >1 uM)”; as for `Cc1cc(NC2CCC(F)(F)CC2)nc(-n2ccc(C(F)F)n2)n1` [Compound 216], “++ (++ means 200 nM-1000 nM)”.
The result for `Cc1cc(C)n(-c2nc(NC3CCC(F)(F)C3)cc(C3CC3)n2)n1` (centres unmarked) [Compound 217, 6-cyclopropyl-N-(3,3-difluorocyclopentyl)-2-(3,5-dimethyl-1H-pyrazol-1-yl)pyrimidin-4-amine] reads “+ (+ means >1 uM)”; that for `Cc1cc(NC2CCC(F)(F)CC2)nc(-n2ccc(C(C)C)n2)n1` [Compound 218, N-(4,4-difluorocyclohexyl)-2-(3-isopropyl-1H-pyrazol-1-yl)-6-methylpyrimidin-4-amine], “++ (++ means 200 nM-1000 nM)”; that for `COc1cccc(-c2nc(C)cc(NC3CCC(F)(F)CC3)n2)n1` [Compound 219, N-(4,4-difluorocyclohexyl)-2-(6-methoxypyridin-2-yl)-6-methylpyrimidin-4-amine], “+ (+ means >1 uM)”.
With `Cc1cc(NC2CCC(F)(F)CC2)nc(-n2nc(Br)cc2C)n1` [Compound 220, 2-(3-bromo-5-methyl-1H-pyrazol-1-yl)-N-(4,4-difluorocyclohexyl)-6-methylpyrimidin-4-amine], the SC100 result was “++ (++ means 200 nM-1000 nM)”.
Consider `Cc1cc(NC2CCC(F)(F)CC2)nc(-n2nc(C3CC3)cc2C)n1` [Compound 221, 2-(3-cyclopropyl-5-methyl-1H-pyrazol-1-yl)-N-(4,4-difluorocyclohexyl)-6-methylpyrimidin-4-amine], for which the SC100 entry is recorded as “+ (+ means >1 uM)”.
As for `Cc1cc(C)n(-c2cc(C3CC3)nc(NC3CCC(F)(F)C3)n2)n1` (centres unmarked) [Compound 222, 4-cyclopropyl-N-(3,3-difluorocyclopentyl)-6-(3,5-dimethyl-1H-pyrazol-1-yl)pyrimidin-2-amine], the entry is “+ (+ means >1 uM)”.
In the case of `Cc1cc(NC2CCC(F)(F)CC2)nc(-n2ccc(CF)n2)n1` [Compound 223], the SC100 result is recorded as “+ (+ means >1 uM)”.
As for `Cc1cccc(-c2nc(C)cc(NC3CCC(F)(F)CC3)n2)n1` [Compound 224, N-(4,4-difluorocyclohexyl)-6-methyl-2-(6-methylpyridin-2-yl)pyrimidin-4-amine], the entry is “+ (+ means >1 uM)”; as for `Cc1cc(C)n(-c2nc(NC3CCC(F)(F)C3)cc(C(C)O)n2)n1` (centres unmarked) [Compound 225, 1-(6-((3,3-difluorocyclopentyl)amino)-2-(3,5-dimethyl-1H-pyrazol-1-yl)pyrimidin-4-yl)ethan-1-ol], “+ (+ means >1 uM)”.
With `Cc1cc(C)n(-c2cc(C3CC3)nc(NC3CCC(F)(F)CC3)n2)n1` [Compound 226, 4-cyclopropyl-N-(4,4-difluorocyclohexyl)-6-(3,5-dimethyl-1H-pyrazol-1-yl)pyrimidin-2-amine], the SC100 entry is on record as “++ (++ means 200 nM-1000 nM)”.
The result for `Cc1cc(C)n(-c2nc(NC3CCC(F)(F)CC3)cc(N3CCOC(C(C)(C)O)C3)n2)n1` (centres unmarked) [Compound 227, 2-(4-(6-((4,4-difluorocyclohexyl)amino)-2-(3,5-dimethyl-1H-pyrazol-1-yl)pyrimidin-4-yl)morpholin-2-yl)propan-2-ol] reads “++ (++ means 200 nM-1000 nM)”.
